From patent US10617677B2, “Nuclear transport modulators and uses thereof” (Biogen MA Inc., priority 2012, dated 2020)
Each block holds one compound with its values, some of them ahead of it.

Columns and labels:
[1] = Brain to plasma ratio (B:P) in mice; format: in vivo
Method: Brain tissue following collection was rinsed with cold saline, dried on filter paper, weighed and snap-frozen by placing on dry ice. All samples were stored frozen at approximately −80° C. until analysis. […] Plasma samples were treated with the identical method (except homogenization step) and concentration of compound in either matrix was calculated based on the generated standard curves.

[2] = Pharmacokinetics (plasma AUCInf) in mice; format: in vivo; conditions: 10 mg/kg po
Method: Blood was collected from mice (N=3) to contribute to the total of 10 time points (pre-dose, 5 min, 15 min, 30 min, 1 hour, 2 hours, 4 hours, 8 hours, 12 hours and 24 hours post dose). Mice were bled on a rotating basis, each mouse contributing 3 time points to the blood collection. At the designated time points, animals were anaesthetized under isoflurane, and approximately 110 μL of blood per time point was collected via retro-orbital puncture into pre-cooled K2EDTA (anti-coagulant) tubes. Blood samples were put on wet ice and centrifuged (2000 g, 5 min at 4° C.) to obtain plasma within 30 minutes of sample collection. All samples were stored frozen at approximately −80° C. until analysis. Prior to analysis, samples were mixed with internal standard (dexamethasone) in acetonitrile, vortexed, centrifuged, and supernatant was injected for analysis. Concentration of compounds in plasma was determined using LC-MS-MS instrumentation (API 4000, Triple Quadruple with electrospray ionization; Acuity Ultra Performance Liquid Chromatography column C18, with MeOH and formic acid as organic solvents). PK parameters including but not limited to Tmax, Cmax, t1/2, AUClast, AUCInf were calculated using WinNonlin Professional 6.2 software package, non-compartmental pharmacokinetic model NCA200.

[3] = tested on: IMQ-induced psoriasis; test: Imiquimod (IMQ)-induced dermal inflammation/psoriasis model, Study 2; format: in vivo, mice; conditions: Compound 2 2.5 mg/kg, cyclophosphamide 10 mg/kg
Method: Forty (40) male BALB/c mice (Biological E Limited, Hyderabad (CPCSEA registration number: 36/99/CPCSEA)) were divided into four (4) groups consisting of ten (10) mice each. Animals were randomized based on their body weight. The groups were designated as Group-I (Naïve), Group-II (IMQ; vehicle (PEG 400 and HPBCD)), Group-III (IMQ; Compound 2 (2.5 mg/kg)) and […] (IMQ; cyclophosphamide (10 mg/kg)).
A small area on the dorsum of each mouse was shaved, ensuring that these areas were of equal size/area. Psoriasis was induced in Groups II to IV by topical application of 50 mg of IMQ cream daily from Day 1 to Day 6 on the dorsum of the animals. On Day 1 and Day 2 of the study, four hours after topical application of IMQ, Compound 2 or positive control (cyclophosphamide) or vehicle were administered to animals in pertinent groups. Of note, animals in Group II and Group III were subjected to subcutaneous injections, whereas animals in Group IV received oral administration. The Compound 2, vehicle and cyclophosphamide treatment was terminated on Day 2. These groups of animals were maintained on daily IMQ treatments until Day 6. On Day 7, the psoriasis-induced animals were re-randomized into 3 groups consisting of 10 animals each based on Cumulative Disease Activity Index (CDAI). From Day 7 to Day 9, animals received vehicle or positive control or Compound 2. Of note, on these days animals were not treated with IMQ. From Day 10 to Day 14, the animals were treated alternatively with IMQ (Days 10, 12 and 14), or vehicle, positive control or Compound 2 (Days 11, 13).
All animals were observed daily for a period of 16 days for gross observations, body weight and feed and water intake. On Days 1 and 2, scorings of erythema, scaling, folding and thickening of skin were recorded 2 hours after administration of vehicle/positive control/test compounds, and on Days 3 to 14 scorings were recorded 4 hours after IMQ application, or administration of positive control, vehicle or Compound 2.
Vehicle was prepared by dissolving 40 mg of HPBCD in 70.0 mL of distilled water. Compound 2 was prepared by dissolving 3.59 mg in 0.5% PVP and 0.5% Pluronic. Cyclophosphamide was prepared by dissolving 500 mg of CMC in 100 mL distilled water.
The experimental results shown in Table 10 are expressed as mean±SEM. Data was assessed using one-way ANOVA, and post hoc analysis was performed using Dunnett's test.

[4] = tested on: A549 xenograft tumors; test: A549 lung carcinoma xenograft in SCID mice; format: in vivo; conditions: for mean tumor volume: 5 mg/kg IP Days 1, 15
Method: The A549 cell line was derived from explant culture of alveolar carcinoma tissue from a person. The cells were grown in Ham's F12-K tissue culture media with 10% fetal calf serum and 1% penicillin/streptomycin. Cells were routinely trypsinized and passaged 1:10. Thirty-two (32) female CB-17 SCID mice (Charles River Labs strain code 236), aged 5 to 6 weeks were used with a mean pre-treatment body weight of 16.3 grams. Mice were divided into four (4) groups of eight (8) prior to the initiation of treatment based on tumor volume. On the day of implantation, cells were washed in PBS, trypsinized and resuspended in complete media to a density of 2×10^7 cells/mL prior to being mixed with an equal volume of Matrigel. This mixture was then inoculated subcutaneously into mice in a volume of 0.1 mL using a 23G needle.
Animal weights and condition were recorded daily, and tumors were measured on Mondays, Wednesdays and Fridays with micro-calipers, and tumor volume was calculated as (length×width×width)/2.
Animals with weight loss of more than 20% of their starting weight were euthanized. Mice with weight loss of more than 15% of their starting weight were not treated again until weight loss recovered to less than 5% of their starting weight. Any animals with a tumor volume of more than 1500 mm^3 were euthanized.
Dosing solutions were prepared fresh on each day of dosing. Compound 2 was supplied as a lyophilized powder containing 69.61% Compound 2 with the balance made up of Pluronic F-68 and PVP K29/32. This was prepared by dissolving the lyophilized powder in sterile water. Cisplatin was dissolved at 5 mg/mL in DMSO and diluted 1:10 in sterile water for injection. All test articles were administered in a volume of 0.1 mL/10 g body weight.
Statistical differences between treatment groups were determined using Mann-Whitney Rank Sum or ANOVA tests with a critical value of 0.05.

[5] = tested on: NF-κB; test: NF-κB transcriptional activity in TNFα-induced HeLa cells; format: cell-based; conditions: Homo sapiens, 1 h pre-treatment, then 4 h of 20 ng/mL TNFα, average of three experiments, read-out: IC50, inhibition of NF-κB transcriptional activity
Method: The compounds were tested on HeLa (adenocarcinoma) cells to quantify their ability to inhibit NF-κB transcriptional activity. NF-κB activity was induced in HeLa cells by TNFα, and then the compounds were added to inhibit the induced NF-κB activity. Half maximal inhibitory concentrations (IC50) of several compounds, namely Compound 1, Compound 2 and Compound 12, were determined by dose response studies.
HeLa cells were plated in a 12-well plate (200,000 cells/well) and cultured in Eagle's Minimal Essential medium (EMEM) from Lonza supplemented with 10% heat-inactivated fetal bovine serum (Invitrogen) and 50 μg/mL penicillin/streptomycin (Invitrogen), and were left overnight to attach. Cells were pre-treated with serial diluted (started at 30 µM; 1:3 dilution) compounds for 1 h and then exposed to 20 ng/mL TNFα (Peprotech) for 4 h in serum free media. After the treatment, the cells were washed with PBS (Invitrogen), and lysed with RIPA buffer (Themo Scientific). The transcription activity of NF-κB in the cells was measured by Chemiluminescent Transcription Factor Assay kit (Thermo Scientific Catalog #89859), according to the manufacturer's instruction. Briefly, 1.5 mg/mL of RIPA lysed whole cell extract from each treatment were incubated in a 96-well plate bound with NF-κB biotinylated-consensus sequence. The active NF-κB transcription factor bound to the consensus sequence was incubated with NF-κB p65 primary antibody and then with a secondary HRP-conjugated antibody. A chemiluminescent substrate was added to the wells and the resulting signal was detected using a luminometer. Three separate experiments were analyzed for each concentration of the IC50 curves. XLFit model 205 was used to calculate IC50 curves.
Inhibition of NF-κB transcriptional activity was measured by serial dilutions of Compound 1, Compound 2 and Compound 12 after 1 h of compound pre-treatment followed by 4 h of 20 ng/mL TNFα exposure. Three independent experiments were scored for each concentration, with the average being presented here.

SMILES: O=P1(N(CCCl)CCCl)NCCCO1 (stereo not drawn) [cyclophosphamide, reference compound]
Rate of reduction of DAI, % change from 1st dose administration ([3]; Day 7, 4 hr. post-IMQ/drug administration readings): 23.3% | Rate of reduction of DAI, % change from 1st dose administration ([3]; Day 7, pre-IMQ/drug administration readings): 0.0% | Rate of reduction of DAI, % change from 1st dose administration ([3]; Day 8, 4 hr. post-IMQ/drug administration readings): 20.9% | Rate of reduction of DAI, % change from 1st dose administration ([3]; Day 8, pre-IMQ/drug administration readings): 16.3% | Rate of reduction of DAI, % change from 1st dose administration ([3]; Day 9, 4 hr. post-IMQ/drug administration readings): −41.9% | Rate of reduction of DAI, % change from 1st dose administration ([3]; Day 9, pre-IMQ/drug administration readings): −39.5% | Rate of reduction of DAI, % change from 1st dose administration ([3]; Day 10, 4 hr. post-IMQ/drug administration readings): −86.0% | Rate of reduction of DAI, % change from 1st dose administration ([3]; Day 10, pre-IMQ/drug administration readings): −79.1% | Rate of reduction of DAI, % change from 1st dose administration ([3]; Day 11, 4 hr. post-IMQ/drug administration readings): −25.6% | Rate of reduction of DAI, % change from 1st dose administration ([3]; Day 11, pre-IMQ/drug administration readings): −25.6% | Rate of reduction of DAI, % change from 1st dose administration ([3]; Day 12, 4 hr. post-IMQ/drug administration readings): −34.9% | Rate of reduction of DAI, % change from 1st dose administration ([3]; Day 12, pre-IMQ/drug administration readings): −39.5% | Rate of reduction of DAI, % change from 1st dose administration ([3]; Day 13, 4 hr. post-IMQ/drug administration readings): −32.6% | Rate of reduction of DAI, % change from 1st dose administration ([3]; Day 13, pre-IMQ/drug administration readings): −25.6% | Rate of reduction of DAI, % change from 1st dose administration ([3]; Day 14, 4 hr. post-IMQ/drug administration readings): −32.6% | Rate of reduction of DAI, % change from 1st dose administration ([3]; Day 14, pre-IMQ/drug administration readings): −34.9% | Rate of reduction of DAI, % change from 1st dose administration ([3]; Day 15, pre-IMQ/drug administration readings): −41.9%

SMILES: N.N.[Cl][Pt][Cl] [cisplatin, reference compound]
tumor growth versus vehicle control group (mean AUC of tumor volume, one-way ANOVA) ([4]; Compound 2 5 or 10 mg/kg PO, cisplatin 5 mg/kg IP): no statistically significant reduction in tumor growth | mean tumor volume ([4]; Day 1): 104 mm^3 | mean tumor volume ([4]; Day 29): 1136 mm^3

SMILES: O=C(/C=C\n1cnc(-c2cc(C(F)(F)F)cc(C(F)(F)F)c2)n1)NNC(=O)C(=O)N1CCOCC1 [Compound 12, (Z)-3-(3-(3,5-bis(trifluoromethyl)phenyl)-1H-1,2,4-triazol-1-yl)-N′-(2-morpholino-2-oxoacetyl)acrylohydrazide]
IC50 [5]: 1460 nM

Second part, the compound after the results:

B:P ([1]; mice, 10 mg/kg po, 2 hours post-dose): 5.0
SMILES: O=C(/C=C\n1cnc(-c2cc(C(F)(F)F)cc(C(F)(F)F)c2)n1)N1CC(F)(F)C1 [Compound X-3]

levels in the brain ([1]; dosed po): below the quantitation limit | AUCInf [2]: below the limit of detection
SMILES: COc1cc(-c2ncn(/C=C\C(=O)OC(C)C)n2)cc(C(F)(F)F)c1 [Compound X-1]
